Where “and” joins values, the source holds several entries; their conditions need not be identical. Equal values may be shown once. Entries after “also recorded” stand apart in the source; their conditions may differ.
Tests used:
[1] = test system: bone marrow micronucleus; assay: Mammalian cell mutagenicity, bone marrow micronucleus study; format: in vivo; conditions: all test concentrations (500, 1000 and 2000 mg/kg)
Description: (§1) Toxicology summary. In mice and rats, the maximum fexinidazole (FEX) dose after oral administration is 10 g/kg of body weight. […] Finally, as regards PK, labeled FEX and its metabolites were excreted within 3 days in the feces (52-58%) and urine (36-40%).

[2] = Excretion and metabolites of labeled FEX; format: in vivo
Description: as §1

[3] = test system: L. infantum; assay: Clinical study in dogs infected with L. infantum: IFAT antibody titers; format: in vivo; conditions: Glucantime 100 mg/kg dNMA SC or Fexinidazole 60 mg/kg PO once daily Days 0-27
Experimental: (§2) In a clinical study, dogs infected with L. infantum were treated with meglumine antimoniate (GLUCANTIME®, Merial) as a positive control, or FEX (Table 5). Eight blocks of two animals were formed based antibody titers and biological scores. Six dogs in each group were naturally infected by housing them in an endemic area for two years and two dogs in each group were artificially infected by intravenous administration of a known quantity of parasites recovered from the spleen of an infected dog.
(§3) The first group (FEX) was compared to the second group, which was treated with 27 mg/kg GLUCANTIME (meglumine antimoniate, or 100 mg/kg of dNMA) “GLU”), over 28 days.
(§4) Variables. The Clinical Score is an additive score of various clinical signs (body condition, lymphadenopathy, splenomegaly, appetite, behavior, mucous membrane color, dermatopathology, ocular signs, digestive signs, arthropathy) evaluated before treatment and on Days 7, 14, 21, 28, 57, 184, 219, 254, 282, 310, 345, 400 and 436. The Overall Biological Score is an additive score based on the severity of changes in hematology/chemistry values (creatinine, urine protein/creatinine, Hct, globulin, ALAT), evaluated pretreatment and on Days 28, 57, and 181. The L. infantum immunofluorescent antibody titers (IFAT) were determined from samples collected before treatment and on Days 28, 57, and 181. Finally, quantitative PCR (qPCR) for L. infantum was conducted on spleen aspirates collected before treatment and on Days 28, 57, 142, 184, and 373.

[4] = test system: L. infantum; assay: Clinical study in dogs infected with L. infantum: Overall Biological Score; format: in vivo; parameters: key: additive score of severity of hematology/chemistry changes; conditions: Glucantime 100 mg/kg dNMA SC or Fexinidazole 60 mg/kg PO once daily Days 0-27
Experimental: as §2, §3, §4

[5] = Multiple dosing study in dogs, 28 consecutive days oral: tolerability; format: in vivo, dog; conditions: for Effects observed: dog, in vivo
Description: In a particular embodiment, the sufficient fexinidazole plasma levels are achieved by administering oral veterinary compositions comprising an effective amount of fexinidazole over a period of time of at least about twenty days. The fexinidazole may be administered according to any effective regimen, including, but not solely, once weekly, twice weekly, once daily, or twice daily. All that is required is that dosing regimen maintains a sufficient fexinidazole plasma level, over a sufficient period of time, to substantially or completely eliminate or cure the Leishmania infections.
Moreover, inventors expect that a wide variety of dosing regimens are now available to the skilled person to achieve the necessary and sufficient fexinidazole plasma levels. For example, and as further outlined in the Examples below, any dosing regimen that produces substantially similar fexinidazole plasma levels, as compared to those levels produced by giving the dogs about 60 mg/kg/day for about twenty-eight days, is expected to substantially or completely eliminate the Leishmania parasites. Table 1 presents the systemic fexinidazole exposure following dosing of dogs with 50, 200, and 800 mg/kg/day.

[6] = test system: L. infantum; assay: Clinical study in dogs infected with L. infantum: Clinical Score; format: in vivo; parameters: key: additive score of clinical signs (body condition, lymphadenopathy, etc.); conditions: Glucantime 100 mg/kg dNMA SC or Fexinidazole 60 mg/kg PO once daily Days 0-27
Experimental: as §2, §3, §4

[7] = test system: L. infantum; assay: Clinical study in dogs infected with L. infantum: qPCR on spleen aspirates; format: in vivo; conditions: spleen aspirate, Glucantime 100 mg/kg dNMA SC or Fexinidazole 60 mg/kg PO once daily Days 0-27
Experimental: as §2, §3, §4

[8] = Reproductive toxicity study, rats; format: in vivo; conditions: oral 200 mg/kg for 10 days
Description: as §1

[9] = Toxicology summary: maximum dose after oral administration, mice; format: in vivo
Description: as §1

[10] = test system: L. donovani; conditions: mice; Wyllie, Sci Transl. Med 4, 119, 2012; cited from earlier work
[11] = test system: chromosome damage; assay: Chromosome damage in vitro or in vivo
Description: as §1

[12] = test system: Leishmania donovani amastigotes grown in macrophages; conditions: Wyllie S et al., 2012; cited from earlier work
[13] = Toxicology summary: maximum dose after oral administration, rats; format: in vivo
Description: as §1

[14] = Toxicology studies in beagles, 90 days (13 weeks); format: in vivo; conditions: daily doses up to 125 mg/kg/day for 90 days (13 weeks)
Description: as §1

[15] = test system: L. infantum; assay: Clinical study in dogs infected with L. infantum: overall outcome (cure, relapse, removal of animals); format: in vivo; conditions: canines, L. infantum
Experimental: as §2
The first group (FEX) was compared to the second group, which was treated with 27 mg/kg GLUCANTIME (meglumine antimoniate, or 100 mg/kg of dNMA) “GLU”), over 28 days. […]

[16] = labeled FEX and its metabolites, within 3 days

CSc1ccc(OCc2ncc([N+](=O)[O-])n2C)cc1 [Fexinidazole, fexinidazole]
mammalian cell mutagenicity, bone marrow micronucleus study [1]: negative | time to excretion of labeled FEX and its metabolites ([2]; feces and urine): ≤ 3 days | main metabolites ([2]; in vivo): the sulfoxide, the sulfone, and the corresponding phenolic fragments | excretion in the feces [2, 16]: 52-58% | excretion in the urine [2, 16]: 36-40% | L. infantum IFAT Antibody Titers ([3]; Day 28, individual dogs): 1/80 | L. infantum IFAT Antibody Titers ([3]; Day 57, individual dogs): 1/640 (2×) and 1/320 and 1/80 | L. infantum IFAT Antibody Titers ([3]; Day 181, individual dogs): 1/640 (2×) and 1/320 and 1/80 | Overall Biological Score ([4]; Day 28, individual dogs): 3 (2×) and 2 (2×) and 1 (2×) and 0 (2×) | Overall Biological Score, group average ([4]; Day 28): 1.5 | Overall Biological Score ([4]; Day 57, individual dogs): 2 (3×) and 0 (3×) and 3 (2×) | Overall Biological Score, group average ([4]; Day 57, Group 1 includes D28 data of Block 3 dog carried forward): 1.5 | Overall Biological Score ([4]; Day 181, individual dogs): 0 (5×) and 1 (2×) and 3 | Overall Biological Score, group average ([4]; Day 181, Group 1 includes D28 data of Block 3 dog carried forward): 0.6 | Overall Biological Score ([4]; Day −14 (pretreatment), individual dogs): 4 and 7 and 5 (2×) and 2 and 3 and 1 and 0 | Overall Biological Score, group average ([4]; Day −14 (pretreatment)): 3.4 | Effects observed ([5]; 200 mg/kg/day): no effects were observed | Effects observed ([5]; 800 mg/kg/day): only minor effects were observed | Tolerability ([5]; dogs, oral 50, 200 and 800 mg/kg/day for 28 consecutive days): well tolerated | Clinical Score, group average ([6]; Day 7): 2.8 | Clinical Score ([6]; Day 14, individual dogs): 2 (2×) and 0 (2×) and 3 (3×) | Clinical Score, group average ([6]; Day 14): 1.6 | Clinical Score ([6]; Day 21, individual dogs): 0 (5×) and 2 (2×) | Clinical Score, group average ([6]; Day 21): 0.5 | Clinical Score ([6]; Day 28, individual dogs): 0 (4×) and 1 (2×) and 2 | Clinical Score, group average ([6]; Day 28, Group 1 includes D21 data of Block 3 dog carried forward): 0.5 | Clinical Score ([6]; Day 57, individual dogs): 2 (3×) and 0 (4×) | Clinical Score, group average ([6]; Day 57, Group 1 includes D21 data of Block 3 dog carried forward): 0.8 | Clinical Score ([6]; Day 184, individual dogs): 0 | Clinical Score, group average ([6]; Day 184): 0.1 | Clinical Score ([6]; Day 219, individual dogs): 0 (6×) and 1 | Clinical Score, group average ([6]; Day 219): 0.1 | Clinical Score ([6]; Day 254, individual dogs): 0 (7×) and 4 | Clinical Score, group average ([6]; Day 254): 0.5 | Clinical Score ([6]; Day 282, individual dogs): 0 (7×) and 2 | Clinical Score, group average ([6]; Day 282): 0.3 | Clinical Score ([6]; Day 310, individual dogs): 0 (6×) and 2 | Clinical Score, group average ([6]; Day 310): 0.3 | Clinical Score ([6]; Day 345, individual dogs): 0 (6×) and 2 | Clinical Score, group average ([6]; Day 345): 0.3 | Clinical Score ([6]; Day 400, individual dogs): 0 (5×) and 1 and 2 | Clinical Score, group average ([6]; Day 400): 0.4 | Clinical Score, group average ([6]; Day 436): 0.4 | Clinical Score, group average ([6]; Day −7 (before treatment)): 2.4 | qPCR for L. infantum ([7]; Day 28, individual dogs): BLOQ (BLOQ = Below Level of Quantification = < log 3.64 copies/mL spleen aspirate) | qPCR for L. infantum ([7]; Day 57, individual dogs): BLOQ (BLOQ = Below Level of Quantification = < log 3.64 copies/mL spleen aspirate) | qPCR for L. infantum ([7]; Day 142, individual dogs): BLOQ (BLOQ = Below Level of Quantification = < log 3.64 copies/mL spleen aspirate) | qPCR for L. infantum ([7]; Day 184, individual dogs): BLOQ (BLOQ = Below Level of Quantification = < log 3.64 copies/mL spleen aspirate) | qPCR for L. infantum ([7]; Day 373, individual dogs): BLOQ (BLOQ = Below Level of Quantification = < log 3.64 copies/mL spleen aspirate) (7×) and 3.82 log copies/mL | qPCR for L. infantum ([7]; Day −7 (before treatment), individual dogs): 7.19 log copies/mL and 7.11 log copies/mL and 5.21 log copies/mL and 5.57 log copies/mL and 6.58 log copies/mL and 5.81 log copies/mL and 6.01 log copies/mL and BLOQ (BLOQ = Below Level of Quantification = < log 3.64 copies/mL spleen aspirate) | embryotoxic effects [8]: no embryotoxic effects | maximum dose after oral administration [9]: 10 g/kg of body weight | suppression of infection due to L. donovani [10]: able to suppress infection | chromosome damage [11]: does not induce chromosome damage | activity against Leishmania donovani amastigotes grown in macrophages [12]: inactive | maximum dose after oral administration [13]: 10 g/kg of body weight | adverse events (AEs) [14]: no observed adverse events | relapse ([15]; 180 days after treatment initiation): No relapse was observed | cure of Leishmania infection ([15]; oral 60 mg/kg/day for 28 days, qPCR-confirmed, 60 mg/kg/day): can substantially or completely eliminate or cure L. infantum infection in canines; also recorded: sufficient to cure canines of leishmania parasites; also recorded: complete curing efficacy

Reference: patent US9585871B2, “Method for treating and curing leishmaniosis using fexinidazole” (Merial Limited, priority 2013, dated 2017)
